Assay results published in patent US20190351012A1, “TARGETING OF INTERFERON-STIMULATED GENE EXPRESSION TO TREAT INTERFERONOPATHIES” (New York University, priority 2018, published 2019).

What was measured:
[1] = test system: H3K4me3 at ISG54, ISG56 and 6-16 promoters; assay: ChIP for H3K4me3 at ISG promoters in 2fTGH cells; assay type: cell-based, human; conditions: co-treatment with IFN-α
Experimental: FIG. 3. […] (A) 2fTGH cells were either left untreated or treated with IFN-α in the absence or presence of TSA for the indicated time (min). ChIP assays were performed with antibodies against Pol II and recovered ISG56 promoter sequences were quantified by real-time PCR relative to input and represented as fold induction relative to untreated cells. (B) As in A, except that antibodies against phosphorylated Pol II at serine-5 in the CTD were used for immunoprecipitation, following 60 min IFN-α treatments. Recovered ISG54, ISG56 and ISG15 promoter sequences were quantified by real-time PCR relative to input and represented as fold induction relative to untreated cells. (C) As in A, except that cells were treated with IFN-α for 60 min and proximal, middle and distal fragments along the ISG54 gene (left panel) and ISG56 gene (right panel) were assayed. (D) As in A, except that antibodies against trimethylated lysine-4 on histone H3 were used. Promoter regions of ISG54, ISG56 and 6-16 genes were quantified by real-time PCR and reported as fold over the signal detected with a non-specific antibody.
Chromatin immunoprecipitation was performed as follows. […] Immunoprecipitated DNA sequences were recovered by alcohol precipitation and quantified by real-time PCR compared with input genomic DNA. […]

[2] = test system: CDK9 at ISG56 and ISG15 promoters; assay: ChIP for CDK9 (P-TEFb) at ISG promoters in 2fTGH cells; assay type: cell-based, human; conditions: IFN-α 60 min in presence of TSA
Experimental: FIG. 4. HDAC activity is required for P-TEFb recruitment. (A) HeLa cells were either left untreated or treated with IFN-α for 1 h in presence or absence of 100 or 200 nM of the CDK9 inhibitor flavopiridol (Flay). Using primers spanning intron-exon junctions, nuclear pre-mRNA abundance for ISG54 and RPS11 were quantified using real-time RT-PCR and normalized to GAPDH mRNA. (B) 2fTGH cells were either left untreated or treated with IFN-α in the absence or presence of TSA for 60 min. ChIP assays were performed with antibodies against CDK9 and recovered ISG56 and ISG15 promoter sequences were quantified by real-time PCR relative to input and represented as percent of the input signal. (C) BT474 cells were either left untreated or treated with IFN-α in the absence or presence of TSA after exposure to Geldanamycin (Gelda) for 24 h, as indicated. mRNA for ISG56, OAS2 and c-Myc were quantified by real-time RT-PCR and normalized to GAPDH. […] ISG56 mRNA was quantified using real-time RT-PCR and normalized to GAPDH mRNA abundance (left panel). […] ISG56, Spt5 mRNA, and ISG54 pre-mRNA were quantified using real-time RT-PCR and normalized to GAPDH mRNA abundance.
To directly probe the involvement of P-TEFb in ISG expression, we assessed its recruitment to chromatin in response to IFN treatment. […]

## CC(/C=C/C(=O)NO)=C\[C@@H](C)C(=O)c1ccc(N(C)C)cc1 [TSA, Trichostatin A]
[1]
  level of H3K4me3 on ISG promoters: neither IFN stimulation nor TSA co-treatment significantly affected
[2]
  chromatin-bound CDK9 at ISG56 and ISG15 promoters: not observed
